According to patent publication US6806377B1, “Preparation of metallocenes carrying a cyclopentadiene comprising a basic donor group” (The University of Leeds, priority 1999, dated 2004):

Assays:
[1] = background statement; cited from earlier work
[2] = solubility in solvents (qualitative statements); type: physicochemical
[3] = stability towards water, air, moisture and heat (qualitative statements); type: physicochemical; conditions: for air / moisture stability: air and moisture

For titanocene dichloride, the “stability in aqueous solution” value [1] is listed as “unstable”.

With “(CpCH2CH2N(CH2)2(CH2)2)2TiCl2.2HCl [Compound 2]” the “solubility in a polar solvent” value ([2]; polar solvent such as methanol, water and acetonitrile) was “soluble”, the water solubility ([2]; water) was “water soluble” and the “air / moisture stability” value [3] was “air stable”. The storage stability ([3]; storage of the protected titanocene) was “can be stored indefinitely”.

In the case of (CpCH2CH2N(CH2)2)2)TiCl2 [Compound 1], the “solubility in aprotic, polar and non-polar solvents” value ([2]; solvents such as ether and toluene) is reported as “soluble” and the “air / moisture stability” value [3] is reported as “highly air and moisture sensitive”.

With (Cp(CH2)2N(CH2)5)2TiMe2 [Compound 3] the thermal stability [3] was “thermally stable” and the “air / moisture stability” value [3] was “highly air sensitive”.
